Test results as given in ChEMBL document CHEMBL1201862, “PubChem BioAssay data set” (2004).
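Cells were grown in 96-well plates and exposed to each compound for 48 hours at five concentrations; endpoints were interpolated linearly between bracketing concentrations, or set to the highest concentration if not reached. The concentration for 50% growth inhibition is given as GI50.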 The source made the active and inactive calls. Rule as the data show it: active = GI50 up to about 1.1 µM and inactive = higher.

Columns and labels:
Test in all cases: DTP human tumour cell line panel, 48 h
[1] = test system: Malme-3M
[2] = test system: HT-29
[3] = test system: OVCAR-5
[4] = test system: HL-60
[5] = test system: OVCAR-8
[6] = test system: UACC-257
[7] = test system: UACC-62
[8] = test system: HOP-92
[9] = test system: NCI-H226
[10] = test system: IGROV-1
[11] = test system: SNB-19
[12] = test system: NCI-H23
[13] = test system: SR
[14] = test system: SF-295
[15] = test system: SK-MEL-28
[16] = test system: KM12
[17] = test system: HCT-116
[18] = test system: SK-MEL-5
[19] = test system: SF-268
[20] = test system: SK-MEL-2

Row | SMILES | GI50 [1] | GI50 [2] | GI50 [3] | GI50 [4] | GI50 [5] | GI50 [6] | GI50 [7] | GI50 [8] | GI50 [9] | GI50 [10] | GI50 [11] | GI50 [12] | GI50 [13] | GI50 [14] | GI50 [15] | GI50 [16] | GI50 [17] | GI50 [18] | GI50 [19] | GI50 [20]
1 | COc1cc2c(cc1OC)C(=O)/C(=C/c1ccc(N(C)C)cc1)CC2 | > 10 µM (inactive) | > 10 µM (inactive) | > 10 µM (inactive) | > 10 µM (inactive) | > 10 µM (inactive) | 3.38 µM (inactive) | > 10 µM (inactive) | > 10 µM (inactive) | > 10 µM (inactive) | > 10 µM (inactive) | > 10 µM (inactive) | > 10 µM (inactive) | > 10 µM (inactive) | > 10 µM (inactive) | > 10 µM (inactive) | > 10 µM (inactive) | > 10 µM (inactive) | > 10 µM (inactive) | > 10 µM (inactive) | 0.962 µM (active)
2 | Cc1ccc(C(=O)N/N=C2/C(=O)c3c4ccccc4cc4cccc2c34)cc1 | 18.8 µM (inactive) | 21.6 µM (inactive) | > 70 µM (inactive) | 10.2 µM (inactive) | 22.4 µM (inactive) | > 87.9 µM (inactive) | 26.9 µM (inactive) | 46.6 µM (inactive) | > 69.3 µM (inactive) | 15.8 µM (inactive) | 27.6 µM (inactive) | 24.6 µM (inactive) | 1.99 µM (inactive) | 19.5 µM (inactive) | 17.7 µM (inactive) | 3.89 µM (inactive) | 4.78 µM (inactive) | 27.5 µM (inactive) | 18.7 µM (inactive) | 64 µM (inactive)
3 | COc1ccc2c(c1)C(=O)CC(C(N)=O)C2 (stereo not given) | > 100 µM (inactive) | > 100 µM (inactive) | > 100 µM (inactive) | > 100 µM (inactive) | > 100 µM (inactive) | > 100 µM (inactive) | > 100 µM (inactive) | > 100 µM (inactive) | > 100 µM (inactive) | > 100 µM (inactive) | > 100 µM (inactive) | > 100 µM (inactive) | > 100 µM (inactive) | > 100 µM (inactive) | > 100 µM (inactive) | > 100 µM (inactive) | > 100 µM (inactive) | > 100 µM (inactive) | > 100 µM (inactive) | > 100 µM (inactive)
4 | C=CCSc1nnc2cc(CN3CCCC3)c(-c3ccc(Cl)cc3)nn12 | 22.6 µM (inactive) | 15 µM (inactive) | 18.3 µM (inactive) | 17.9 µM (inactive) | 23.3 µM (inactive) | 17.5 µM (inactive) | 14.4 µM (inactive) | 16.1 µM (inactive) | 11.2 µM (inactive) | 20.7 µM (inactive) | 24.6 µM (inactive) | 23.7 µM (inactive) | 32.6 µM (inactive) | 22.2 µM (inactive) | 20 µM (inactive) | 24.8 µM (inactive) | 14.5 µM (inactive) | 15.5 µM (inactive) | 20.8 µM (inactive) | 19.2 µM (inactive)
5 | Brc1nc2c3ccccc3ncn2c1Br | 13.3 µM (inactive) | 29.3 µM (inactive) | 64.9 µM (inactive) | 22.5 µM (inactive) | 42.7 µM (inactive) | 33 µM (inactive) | 16.4 µM (inactive) | 27.9 µM (inactive) | 26.4 µM (inactive) | 35.9 µM (inactive) | 36.9 µM (inactive) | 20.7 µM (inactive) | 19.4 µM (inactive) | 34.4 µM (inactive) | 82 µM (inactive) | 32.1 µM (inactive) | 37.3 µM (inactive) | 18.3 µM (inactive) | 82.6 µM (inactive) | 27.5 µM (inactive)
6 | Cc1cc2c(cc1C(=O)CCC(=O)O)CC1(C2)Cc2cc(C)c(C(=O)CCC(=O)O)cc2C1 | > 100 µM (inactive) | > 100 µM (inactive) | > 100 µM (inactive) | > 100 µM (inactive) | > 100 µM (inactive) | > 100 µM (inactive) |  | > 100 µM (inactive) | > 100 µM (inactive) | > 100 µM (inactive) | > 100 µM (inactive) | > 100 µM (inactive) | > 100 µM (inactive) | > 100 µM (inactive) | > 100 µM (inactive) | > 100 µM (inactive) | > 100 µM (inactive) | > 100 µM (inactive) | > 100 µM (inactive) | > 100 µM (inactive)
7 | COc1cc(OC)c(OC)cc1/C=C\c1ccnc2ccccc12 | 0.7 µM (active) | 0.522 µM (active) | 7.23 µM (inactive) | 0.344 µM (active) | 1.25 µM (inactive) | 4.88 µM (inactive) | 0.541 µM (active) | 1.21 µM (inactive) | 0.977 µM (active) | 0.897 µM (active) | 1.01 µM (active) | 0.832 µM (active) | 0.933 µM (active) | 0.48 µM (active) | 0.782 µM (active) | 0.675 µM (active) | 0.574 µM (active) | 0.414 µM (active) | 0.838 µM (active) | 0.308 µM (active)
8 | CC1=C(C(=O)Nc2ccc(Cl)c(Cl)c2)C(c2ccc([N+](=O)[O-])cc2)C(C(=O)Nc2ccc(Cl)c(Cl)c2)=C(C)N1 | 2.57 µM (inactive) | 2.42 µM (inactive) | 3.23 µM (inactive) | 0.361 µM (active) | 2.13 µM (inactive) | 2.51 µM (inactive) | 1.7 µM (inactive) | 2.4 µM (inactive) | 3.88 µM (inactive) | 3.2 µM (inactive) | 4.65 µM (inactive) | 2.21 µM (inactive) | 0.179 µM (active) | 2.7 µM (inactive) | 2.44 µM (inactive) | 1.82 µM (inactive) | 1.55 µM (inactive) | 1.67 µM (inactive) | 3.38 µM (inactive) | 2.1 µM (inactive)
9 | O=C(CCN1CCN2c3ccccc3CCC2C1)c1ccc(F)cc1 (stereo not given) | 25.1 µM (inactive) | 18.8 µM (inactive) | 23.1 µM (inactive) | 28.5 µM (inactive) | 41.5 µM (inactive) | 34.7 µM (inactive) | 31 µM (inactive) | 33.9 µM (inactive) | 34.8 µM (inactive) | 22.4 µM (inactive) | 23.2 µM (inactive) | 36.1 µM (inactive) | 28.4 µM (inactive) | > 100 µM (inactive) | 14.7 µM (inactive) | 41.1 µM (inactive) | 37.5 µM (inactive) | 22.5 µM (inactive) | 46.9 µM (inactive) | 23 µM (inactive)
10 | COc1cc(-c2cc(-c3ccccc3)nc(-c3c(OC)ccc4c(C)cc(=O)oc34)c2)cc(OC)c1OC | > 100 µM (inactive) | > 100 µM (inactive) |  | 13.6 µM (inactive) | > 100 µM (inactive) | > 100 µM (inactive) | > 100 µM (inactive) | > 100 µM (inactive) | > 100 µM (inactive) | > 100 µM (inactive) | > 100 µM (inactive) | > 100 µM (inactive) | > 100 µM (inactive) | > 100 µM (inactive) |  | > 100 µM (inactive) | > 100 µM (inactive) | > 100 µM (inactive) | > 100 µM (inactive) | > 100 µM (inactive)
11 | Cc1cccc(C)c1NC(=O)CCc1nnc2s/c(=C\c3ccc(N(C)C)cc3)c(=O)n12 | > 100 µM (inactive) | > 100 µM (inactive) | > 100 µM (inactive) | 68.1 µM (inactive) | > 100 µM (inactive) | > 100 µM (inactive) | > 100 µM (inactive) | > 100 µM (inactive) | > 100 µM (inactive) | > 100 µM (inactive) | > 100 µM (inactive) | > 100 µM (inactive) | > 100 µM (inactive) | 56.1 µM (inactive) | > 100 µM (inactive) | > 100 µM (inactive) | > 100 µM (inactive) | > 100 µM (inactive) | 59.2 µM (inactive) | > 100 µM (inactive)
12 | Cn1nc2ccc3nccc(N(CCO)CCO)c3c2n1 | > 100 µM (inactive) | > 100 µM (inactive) | > 100 µM (inactive) | > 100 µM (inactive) | > 100 µM (inactive) | > 100 µM (inactive) | > 100 µM (inactive) | > 100 µM (inactive) | > 100 µM (inactive) | > 100 µM (inactive) | > 100 µM (inactive) | > 100 µM (inactive) | > 100 µM (inactive) | > 100 µM (inactive) | > 100 µM (inactive) | > 100 µM (inactive) | > 100 µM (inactive) | > 100 µM (inactive) | > 100 µM (inactive) | > 100 µM (inactive)
13 | CC(=O)O[C@H]1C=CC(=O)C(C)CC1C (stereo not given in full) | > 100 µM (inactive) | > 100 µM (inactive) | > 100 µM (inactive) | 64.9 µM (inactive) |  | > 100 µM (inactive) | > 100 µM (inactive) | > 100 µM (inactive) | > 100 µM (inactive) | > 100 µM (inactive) | > 100 µM (inactive) | 75.9 µM (inactive) | > 100 µM (inactive) | > 100 µM (inactive) | > 100 µM (inactive) | > 100 µM (inactive) | 44.8 µM (inactive) | > 100 µM (inactive) | > 100 µM (inactive) | > 100 µM (inactive)
14 | O=S(=O)(O)Nc1ccc(-c2nc3ccccc3s2)cc1Cl | > 100 µM (inactive) | > 100 µM (inactive) | 16.1 µM (inactive) | > 100 µM (inactive) | > 100 µM (inactive) | > 100 µM (inactive) | > 100 µM (inactive) | > 100 µM (inactive) | 14.6 µM (inactive) | 1.67 µM (inactive) | > 100 µM (inactive) | > 100 µM (inactive) | > 100 µM (inactive) | > 100 µM (inactive) | > 100 µM (inactive) | > 100 µM (inactive) | > 100 µM (inactive) | > 100 µM (inactive) |  | > 100 µM (inactive)
